In paper PMC12060349 (BMC Pharmacology & Toxicology, 2025):

Experiments:
[1] = tested on: patients with advanced NSCLC with EGFR mutations; conditions: FLAURA clinical study; cited from earlier work
[2] = tested on: healthy Chinese male subjects; test: Safety evaluation; format: in vivo, human (healthy Chinese male subjects); conditions: Group 2
[3] = tested on: healthy Chinese male subjects; test: Safety evaluation; format: in vivo, human (healthy Chinese male subjects)

Structure (SMILES): C=CC(=O)Nc1cc(Nc2nccc(-c3cn(C)c4ccccc34)n2)c(OC)cc1N(C)CCN(C)C [Osimertinib]
- median overall survival [1]: 38.6 months

Structure (SMILES): CO[C@H]1/C=C/O[C@@]2(C)Oc3c(C)c(O)c4c(O)c(c(/C=N/N5CCN(C)CC5)c(O)c4c3C2=O)NC(=O)/C(C)=C\C=C\[C@H](C)[C@H](O)[C@@H](C)[C@@H](O)[C@@H](C)[C@H](OC(C)=O)[C@@H]1C [Rifampicin]
- subjects with TEAEs also related to Rifampicin [2]: 20.0%

Structure (SMILES): CCC(C)n1ncn(-c2ccc(N3CCN(c4ccc(OCC5COC(Cn6cncn6)(c6ccc(Cl)cc6Cl)O5)cc4)CC3)cc2)c1=O (stereo not shown) [Itraconazole]
- subjects with TEAEs ([3]; Group 1, monotherapy phase with Itraconazole 200 mg QD): 42.9%
- subjects with TEAEs also related to Itraconazole ([3]; Group 1, 13 TEAEs in 10 subjects): 66.7%
